PMC7078479, “Sulfamoyl Heteroarylcarboxylic Acids as Promising Metallo-β-Lactamase Inhibitors for Controlling Bacterial Carbapenem Resistance” (mBio, 2020)

Columns and labels:
IMP-1 = biological target: T1, IMP-1 (Serratia marcescens, UniProt P52699); assay: Library screening, nitrocefin hydrolysis by IMP-1; assay type: biochemical; settings: 100 μM compound, 10 nM IMP-1, 100 μM nitrocefin, 1 h
T1 construct: made in house
From the text: Screening compounds were provided from the curated collection of an in-house small-molecule chemical library (the chemical library of the Institute of Transformative Bio-Molecules [ITbM]). The library is composed of structurally diverse molecules, including synthetic molecules with unknown activity, known enzyme inhibitors, approved drugs, and natural products. Some of these molecules are commercially available from several worldwide chemical suppliers, whereas some are structurally novel molecules synthesized in-house by ITbM. All compounds were dissolved in dimethyl sulfoxide (DMSO) at a concentration of 10 mM and stored at −20°C until further use. We screened 22,671 compounds in 96-well flat plates using nitrocefin as a reporter substrate ([37]). Each well included 20 mM HEPES-NaOH buffer (pH 7.5) containing 10 nM IMP-1, 100 μM nitrocefin, and 100 μM concentrations of the tested compounds. The absorbance (Abs) at 482 nm was measured after incubation for 1 h at room temperature. The inhibitory effect of compounds against IMP-1 was evaluated using the following equation: Residual ratio=Abs482 nm compound/Abs482 nm no compound

E. coli DH5α/pBC-IMP-1 = assay: Susceptibility and checkerboard testing, IMP-1-producing E. coli; assay type: cell-based, Escherichia coli
Method: (§1) MICs were determined via the microdilution method according to the CLSI guidelines ([38]). In brief, 5 × 10^4 bacterial cells were inoculated in 100 μl of cation-adjusted Mueller-Hinton broth (Becton, Dickinson and Company, Franklin Lakes, NJ) containing the β-lactams and appropriately diluted inhibitors. The final concentration of DMSO was maintained at 2% in the assays. The tested plates were then incubated at 35°C for 16 to 20 h. The MIC value was determined as the lowest concentration of tested β-lactams where no bacterial growth was visibly observed. The optical density at 600 nm (OD600) value was measured using a plate reader for drawing the heat maps. The FIC index value was calculated using the following equation: FIC index=MIC of β-lactam with inhibitor/MIC of β-lactam alone+MIC of inhibitor with β-lactam/MIC of inhibitor alone
(§2) Unless noted otherwise, the FIC index was defined as the lowest value among all obtained values. The synergistic effect was defined as the effect observed when the FIC index value was ≤0.5.

E. coli DH5α/pBC-NDM-1 = assay: Susceptibility and checkerboard testing, NDM-1-producing E. coli; assay type: cell-based, Escherichia coli; settings: Escherichia coli, read-out: MIC of MPM without inhibitor
Method: as §1, §2

E. coli DH5α/pBC-TMB-2 = assay: Susceptibility testing, TMB-2-producing E. coli; assay type: cell-based; settings: Escherichia coli, read-out: MIC of MPM without inhibitor
Method: as §1

[1] = test system: E. coli BL21(DE3)/pET-SIM-1; assay: Susceptibility testing, SIM-1-producing E. coli; assay type: cell-based; settings: Escherichia coli, read-out: MIC of MPM without inhibitor
Method: as §1

[2] = test system: P. aeruginosa PAO1/pME-IMP-1; assay: Susceptibility testing, IMP-1-producing P. aeruginosa PAO1; assay type: cell-based; settings: Pseudomonas aeruginosa, PAO1, read-out: MIC of MPM without inhibitor
Method: as §1

[3] = test system: P. aeruginosa PAO1/pME-NDM-1; assay: Susceptibility testing, NDM-1-producing P. aeruginosa PAO1; assay type: cell-based; settings: Pseudomonas aeruginosa, PAO1, read-out: MIC of MPM without inhibitor
Method: as §1

[4] = test system: P. aeruginosa PAO1/pME-VIM-2; assay: Susceptibility testing, VIM-2-producing P. aeruginosa PAO1; assay type: cell-based; settings: Pseudomonas aeruginosa, PAO1, read-out: MIC of MPM without inhibitor
Method: as §1

[5] = test system: P. aeruginosa PAO1/pME6032; assay: Susceptibility testing, P. aeruginosa PAO1 with empty vector; assay type: cell-based; settings: Pseudomonas aeruginosa, PAO1, read-out: MIC of MPM without inhibitor
Method: as §1

[6] = test system: IMP-type MBL-producing Enterobacteriaceae; assay: Susceptibility testing, 19 IMP-type MBL-producing Enterobacteriaceae isolates; assay type: cell-based; settings: read-out: MIC of MPM alone
Method: as §1

[7] = test system: IMP-1-producing E. coli NUBL-24; assay: Susceptibility and checkerboard testing, E. coli NUBL-24; assay type: cell-based; settings: Escherichia coli; E. coli NUBL-24 (blaIMP-1), MPM alone
Method: as §1, §2
The initial density of E. coli NUBL-24 (blaIMP-1) (MPM MIC, 8 μg/ml) was adjusted to approximately 5 × 10^6 CFU/ml. Either MPM (1 μg/ml) alone or SFC (10 μg/ml) alone or a combination of the two was added to the bacterial solution, and then incubation was performed at 37°C. LB broth containing only bacteria was used as a control. […]

[8] = test system: IMP-1-producing E. coli NUBL-24; assay: Mouse infection model, E. coli NUBL-24, survival; assay type: in vivo, mice; settings: SFC 100 mg/kg or MPM 0.2 mg/kg i.p. at 1 and 3 h after infection; within 48 h
Method: All experiments were approved by the Nagoya University Animal Ethics Committee, and all experiments were performed in a manner that minimized animal suffering. Male CD1 mice (4 weeks old; 20 to 25 g body weight) were purchased from Charles River Laboratories Japan (Yokohama, Japan). E. coli NUBL-24 (blaIMP-1) and K. pneumoniae MS5674 (blaNDM-1 and blaVIM-1) strains were inoculated on LB agar plates and grown for 18 h at 37°C. Bacteria were then scraped from the plates, and their concentration was adjusted to 5 × 10^6 to 1 × 10^7 CFU in saline solution containing 5% mucin; this solution was then i.p. injected into the mice. At 1 and 3 h after infection, saline solution, MPM, inhibitors, and a combination of MPM and inhibitor were i.p. injected. Mice were monitored for 7 days to formulate survival curves, after which they were euthanized by CO2 asphyxiation.

T1 sequence (P52699 19-246 limits assumed): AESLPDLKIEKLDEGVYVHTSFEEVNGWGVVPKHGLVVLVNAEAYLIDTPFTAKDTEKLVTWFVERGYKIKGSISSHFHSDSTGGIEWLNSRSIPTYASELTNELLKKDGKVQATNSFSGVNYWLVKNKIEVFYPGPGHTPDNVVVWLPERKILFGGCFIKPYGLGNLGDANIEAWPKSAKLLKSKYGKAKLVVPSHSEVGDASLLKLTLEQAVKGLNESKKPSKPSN

Compound	Residual ratio (Abs482 compound/no compound) (IMP-1)	MIC of MPM without inhibitor (E. coli DH5α/pBC-IMP-1; E. coli DH5α/pBC-IMP-1)	MIC (E. coli DH5α/pBC-IMP-1; Escherichia coli, read-out: MIC of MPM without inhibitor)	MIC (E. coli DH5α/pBC-NDM-1)	MIC (E. coli DH5α/pBC-TMB-2)	MIC [1]	MIC [2]	MIC [3]	MIC [4]	MIC [5]	MIC [6]	MIC [7]	Rescue of infected mice by monotherapy [8]
O=C([O-])C1=CS[C@@H]2/C(=C\c3cn4c(n3)COCC4)C(=O)N12.[Na+] [BLI-489]	< 0.6	–	–	–	–	–	–	–	–	–	–	–	–
C[C@@H](O)[C@H]1C(=O)N2C(C(=O)O)=C(S[C@@H]3CN[C@H](C(=O)N(C)C)C3)[C@H](C)[C@H]12 [MPM, meropenem, reference compound]	–	1 µg/mL	1 µg/mL	64 µg/mL	16 µg/mL	16 µg/mL	128 µg/mL	8 µg/mL	32 µg/mL	0.5 µg/mL	≥ 2 µg/mL	8 µg/mL	failed to rescue mice
